Results published in US9399635B2, “Pyrazole derivative” (GREEN TECH CO., LTD., priority 2011, dated 2016).

Tests used:
[1] = biological target: recombinant three-repeat microtubule-binding domain (3R-MBD) of tau protein (Homo sapiens, UniProt P10636); assay: Determination of tau aggregation inhibitory activity (heparin-induced, thioflavin T fluorescence; electron microscope); type: biochemical; details: for IC50: 3R-MBD tau 10 μM, heparin 10 μM, 37° C. for 16 hours, thioflavin T, read-out: IC50 (μM) Test example 1 (tau aggregation inhibitory activity)
Protocol: Pharmacological Test Example 1: Determination of Tau Aggregation Inhibitory Activity
A recombinant three-repeat microtubule-binding domain (3R-MBD) of tau protein was expressed in E. coli and was purified and used for the experiment. The purified tau solution was diluted with a 50 mM Tris-HCl buffer (pH 7.6) to a final concentration of 10 μM. The test compounds were prepared using dimethylsulfoxide (DMSO) at 20-fold of their final concentrations and added to the plate so that the DMSO concentration would be 5%. Heparin was added to the plate so that the final concentration would be 10 μM and the plate was left to stand at 37° C. for 16 hours. Thioflavin T was added to the plate so that the concentration would be 10 μM and the fluorescence intensity was measured with a fluorescence plate reader (PerkinElmer, Inc.) (excitation wavelength: 440 nm; emission wavelength: 480 nm).
(§1) The final concentration of each compound at the time of measurement was set at 0.1, 0.3, 1, 3, and 10 μM. The sample to which only DMSO was added was used as a negative control and its fluorescence intensity was taken as 0% inhibitory activity.
The samples were placed on a grid and washed with distilled water. A 1 mM phosphotungstic acid aqueous solution was added to the samples. The samples were washed, dried overnight, and observed.

[2] = biological target: T1, recombinant human β-secretase (Homo sapiens, UniProt P56817); assay: Determination of β-secretase inhibitory activity (BACE-1 FRET assay Kit); type: biochemical; details: for IC50: recombinant human β-secretase, fluorescent substrate peptide, 1 hour, read-out: IC50 (μM) Test example 2 (β-secretase inhibitory activity)
T1 construct: purchased Invitrogen
Protocol: Pharmacological Test Example 2: Determination of β-Secretase Inhibitory Activity
The β-secretase inhibitory activity was measured with BACE-1 FRET assay Kit (Invitrogen). The test compounds were prepared using DMSO at 30-fold of their final concentrations and dissolved so that the DMSO concentration would be 10%. To each of the solutions, an equal volume of a recombinant human β-secretase (1 U/mL) dissolved in the assay buffer and an equal volume of fluorescent substrate peptide (2.5 nM) were added and the solutions were left to stand for 1 hour. The fluorescence intensity was measured with a fluorescence plate reader (excitation wavelength: 545 nm; emission wavelength: 590 nm).
The final concentration of each compound at the time of measurement was set at 0.1, 0.3, 1, 3, and 10 μM, at 0.3, 1, 3, 10, and 30 μM, or at 1, 3, 10, 30, and 100 μM.

Aβ 1-42 = biological target: T2, Aβ 1-42 (Homo sapiens, UniProt P05067); assay: Determination of Aβ aggregation inhibitory activity (thioflavin T fluorescence); type: biochemical; details: Aβ 1-42, 37° C. for 24 hours, thioflavin T; read-out: IC50 (μM) Test example 3 (Aβ aggregation inhibitory activity)
T2 construct: Aβ 1-42 (Peptide Institute, Inc.) was dissolved in 0.3% ammonia water; purchased Peptide Institute, Inc
Protocol: Pharmacological test example 3: Determination of Aβ aggregation inhibitory activity
Aβ 1-42 (Peptide Institute, Inc.) was dissolved in 0.3% ammonia water so that the concentration would be 0.5 mM and then diluted with PBS to 20 μM. The test compounds were prepared using DMSO at 100-fold of their final concentrations and adjusted so that the DMSO concentration would be 2%. The Aβ solution and each of the test compound solutions were mixed at an equivalent ratio and the mixtures were incubated at 37° C. for 24 hours. To each of the mixtures, an equal volume of a thioflavin T solution adjusted with a 100 mM Tris-glycine buffer (pH 8.5) to 6 μM was added. The fluorescence intensity was measured with a fluorescence plate reader (excitation wavelength: 440 nm; emission wavelength: 480 nm).
as §1

T1 sequence (P56817 46-501): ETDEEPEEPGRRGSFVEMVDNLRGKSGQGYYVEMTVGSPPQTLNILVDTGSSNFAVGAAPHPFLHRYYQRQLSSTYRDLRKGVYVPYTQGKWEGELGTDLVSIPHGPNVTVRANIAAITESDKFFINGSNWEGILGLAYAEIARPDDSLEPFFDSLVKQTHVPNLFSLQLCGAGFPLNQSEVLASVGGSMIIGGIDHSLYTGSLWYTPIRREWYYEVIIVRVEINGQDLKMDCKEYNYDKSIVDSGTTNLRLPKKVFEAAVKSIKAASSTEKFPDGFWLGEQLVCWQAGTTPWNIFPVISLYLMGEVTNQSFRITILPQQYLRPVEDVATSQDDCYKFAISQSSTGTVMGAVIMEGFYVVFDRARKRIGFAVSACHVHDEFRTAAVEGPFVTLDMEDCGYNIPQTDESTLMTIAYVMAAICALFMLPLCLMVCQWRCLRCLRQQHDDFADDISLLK
T2 sequence (P05067 672-713): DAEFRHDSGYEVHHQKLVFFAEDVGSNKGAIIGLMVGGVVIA
recombinant three-repeat microtubule-binding domain (3R-MBD) of tau protein, sequence (P10636 186-279 isoform P10636-2 limits assumed): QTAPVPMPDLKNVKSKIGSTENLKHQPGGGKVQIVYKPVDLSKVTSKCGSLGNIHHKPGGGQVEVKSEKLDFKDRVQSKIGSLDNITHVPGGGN

`COc1cc(OCC2CCCO2)ccc1/C=C/c1cc(/C=C/c2ccc3cc[nH]c3c2)[nH]n1` (centres unmarked) [Example 1, 3-[(1E)-2-(1H-indol-6-yl)ethenyl]-5-[(1E)-2-[2-methoxy-4-(2-tetrahydrofuranylmethoxy)phenyl]ethenyl]-1H-pyrazole] showed an IC50 [1] of 1.49 µM, an IC50 [2] of 2.85 µM and an IC50 (Aβ 1-42) of 3 µM. For the same molecule, the melting point was 218 to 220 °C.

In the case of `Oc1cc(OCc2ccccn2)ccc1/C=C/c1cc(/C=C/c2ccc3cc[nH]c3c2)[nH]n1` [Example 3, 3-[(1E)-2-(1H-indol-6-yl)ethenyl]-5-[(1E)-2-[2-hydroxy-4-(2-pyridylmethoxy)phenyl]ethenyl]-1H-pyrazole], the IC50 [2] is reported as 2.9 µM, the IC50 (Aβ 1-42) is reported as 1.6 µM and the melting point is reported as 202.5 to 203.5 °C.

For `COc1cc(OCCN2CCOCC2)ccc1/C=C/c1cc(/C=C/c2ccc3cc[nH]c3c2)[nH]n1` [Example 27, 3-[(1E)-2-(1H-indol-6-yl)ethenyl]-5-[(1E)-2-[2-methoxy-4-(2-morpholinoethoxy)phenyl]ethenyl]-1H-pyrazole], the IC50 [1] was 1.28 µM, the IC50 [2] was 1.04 µM and the IC50 (Aβ 1-42) was 7.53 µM. For the same molecule, the melting point was 113 to 122 °C.

Molecule `COc1cc(OCc2ccccn2)ccc1/C=C/c1cc(/C=C/c2ccc3[nH]cnc3c2)[nH]n1` [Example 31, 3-[(1E)-2-(1H-benzimidazol-5-yl)ethenyl]-5-[(1E)-2-[2-methoxy-4-(2-pyridylmethoxy)phenyl]ethenyl]-1H-pyrazole] has an IC50 [1] of 1.57 µM, an IC50 [2] of 0.69 µM and an IC50 (Aβ 1-42) of 6.88 µM. The melting point was 135 to 142 °C.

In the case of `COc1cc(OCc2ccccn2)ccc1/C=C/c1cc(/C=C/c2ccc3ccn(C)c3c2)[nH]n1` [Example 35, 3-[(1E)-2-[2-methoxy-4-(2-pyridylmethoxy)phenyl]ethenyl]-5-[(1E)-2-(1-methyl-1H-indol-6-yl)ethenyl]-1H-pyrazole], the IC50 (Aβ 1-42) is reported as 0.91 µM and the melting point is reported as 172 to 174 °C.

`COc1cc(OCc2ccccn2)ccc1/C=C/c1cc(/C=C/c2cc3ccccc3[nH]2)[nH]n1` [Example 36, 3-[(1E)-2-(1H-indol-2-yl)ethenyl]-5-[(1E)-2-[2-methoxy-4-(2-pyridylmethoxy)phenyl]ethenyl]-1H-pyrazole] gave an IC50 (Aβ 1-42) of 2.9 µM and a melting point of 150.8 to 151.6 °C.

For `CCN(CC)c1ccc(/C=C/c2cc(/C=C/c3ccc4cc[nH]c4c3)[nH]n2)c(OCc2ccccc2)c1` [Example 37, 3-[(1E)-2-(2-benzyloxy-4-diethylaminophenyl)ethenyl]-5-[(1E)-2-(1H-indol-6-yl)ethenyl]-1H-pyrazole], the IC50 (Aβ 1-42) was 0.4 µM and the melting point was 78.1 to 80 °C.

`COc1ccc([N+](=O)[O-])c(/C=C/c2cc(/C=C/c3ccc4cc[nH]c4c3)[nH]n2)c1` [Example 58, 3-[(1E)-2-(1H-indol-6-yl)ethenyl]-5-[(1E)-2-(5-methoxy-2-nitrophenyl)ethenyl]-1H-pyrazole] showed an IC50 [1] of 3.84 µM, an IC50 [2] of 1.11 µM and an IC50 (Aβ 1-42) of 2.17 µM. It also gave a melting point of 104 to 109 °C.

For `COc1cc(OCc2ccccc2)ccc1/C=C/c1cc(/C=C/c2ccc3cc[nH]c3c2)[nH]n1` [Example 63, 3-[(1E)-2-(4-benzyloxy-2-methoxyphenyl)ethenyl]-5-[(1E)-2-(1H-indol-6-yl)ethenyl]-1H-pyrazole], the IC50 [1] was 1.37 µM, the IC50 [2] was 4.39 µM and the IC50 (Aβ 1-42) was > 10 µM. For the same molecule, the melting point was 86 to 91 °C.

`CN1CCCN(c2ccc(/C=C/c3cc(/C=C/c4ccc5cc[nH]c5c4)[nH]n3)c(Br)c2)CC1` [Example 72, 3-[(1E)-2-[2-bromo-4-(4-methyl-1,4-diazepan-1-yl)phenyl]ethenyl]-5-[(1E)-2-(1H-indol-6-yl)ethenyl]-1H-pyrazole] gave an IC50 [1] of 1.46 µM, an IC50 [2] of 0.22 µM and an IC50 (Aβ 1-42) of 2.45 µM. It also gave a melting point of 132 to 136 °C.

For `COc1cc(OCc2ccccn2)ccc1/C=C/c1cc(/C=C/c2ccc3c(c2)OCO3)[nH]n1` [Example 77, 3-[(1E)-2-(1,3-benzodioxol-5-yl)ethenyl]-5-[(1E)-2-[2-methoxy-4-(2-pyridylmethoxy)phenyl]ethenyl]-1H-pyrazole], the IC50 [1] was 1.26 µM, the IC50 [2] was 13.7 µM and the IC50 (Aβ 1-42) was > 10 µM. For the same molecule, the melting point was 218 to 220 °C.

Work on `COc1cc(OCC2CCCCC2)ccc1/C=C/c1cc(/C=C/c2ccc3cc[nH]c3c2)[nH]n1` [Example 80, 3-[(1E)-2-[4-(cyclohexylmethoxy)-2-methoxyphenyl]ethenyl]-5-[(1E)-2-(1H-indol-6-yl)ethenyl]-1H-pyrazole] yielded a melting point of 104 to 108 °C.

`COc1cc(OCCn2cccc2)ccc1/C=C/c1cc(/C=C/c2ccc3cc[nH]c3c2)[nH]n1` [Example 81, 3-[(1E)-2-(1H-indol-6-yl)ethenyl]-5-[(1E)-2-[2-methoxy-4-[2-(pyrrol-1-yl)ethoxy]phenyl]ethenyl]-1H-pyrazole] showed a melting point of 102 to 110 °C.

Molecule `CCN(CC)c1ccc(/C=C/c2cc(/C=C/c3ccc4cc[nH]c4c3)[nH]n2)c(OCCN2CCCCC2)c1` [Example 97, 3-[(1E)-2-[4-diethylamino-2-[2-(1-piperidyl)ethoxy]phenyl]ethenyl]-5-[(1E)-2-(1H-indol-6-yl)ethenyl]-1H-pyrazole] has a melting point of 102 to 104 °C.

In the case of `COc1cc(OCc2ccccn2)ccc1/C=C/c1cc(/C=C/c2c[nH]c3ccc(F)cc23)[nH]n1` [Example 99, 3-[(1E)-2-(5-fluoro-1H-indol-3-yl)ethenyl]-5-[(1E)-2-[2-methoxy-4-(2-pyridylmethoxy)phenyl]ethenyl]-1H-pyrazole], the melting point is reported as 209 to 213 °C.

`COc1ccc2[nH]cc(/C=C/c3cc(/C=C/c4ccc(OCc5ccccn5)cc4OC)n[nH]3)c2c1` [Example 100, 3-[(1E)-2-(5-methoxy-1H-indol-3-yl)ethenyl]-5-[(1E)-2-[2-methoxy-4-(2-pyridylmethoxy)phenyl]ethenyl]-1H-pyrazole] gave a melting point of 189 to 195 °C.

`C(=C\c1cc(/C=C/c2ccc3cc[nH]c3c2)[nH]n1)/c1ccc(N2CCOCC2)cc1` [Example 103, 5-[(1E)-2-(1H-indol-6-yl)ethenyl]-3-[(1E)-2-(4-morpholinophenyl)ethenyl]-1H-pyrazole] gave a melting point of 236 to 238 °C.

`CCN(CC)c1ccc(/C=C/c2cc(/C=C/c3ccc4cc[nH]c4c3)[nH]n2)c(OC)c1` [Example 104, 3-[(1E)-2-(4-diethylamino-2-methoxyphenyl)ethenyl]-5-[(1E)-2-(1H-indol-6-yl)ethenyl]-1H-pyrazole] gave a melting point of 104 to 108 °C.

`CN(C)c1ccc(/C=C/c2cc(/C=C/c3ccc4cc[nH]c4c3)[nH]n2)cc1` [Example 105, 3-[(1E)-2-(4-dimethylaminophenyl)ethenyl]-5-[(1E)-2-(1H-indol-6-yl)ethenyl]-1H-pyrazole] gave a melting point of 224 to 227 °C.

`CCN(CC)c1ccc(/C=C/c2cc(/C=C/c3ccc4cc[nH]c4c3)[nH]n2)cc1` [Example 106, 3-[(1E)-2-(4-diethylaminophenyl)ethenyl]-5-[(1E)-2-(1H-indol-6-yl)ethenyl]-1H-pyrazole] gave a melting point of 201 to 204 °C.

Molecule `C(=C\c1cc(/C=C/c2ccc3cc[nH]c3c2)[nH]n1)/c1ccc(N2CCCCC2)cc1` [Example 107, 5-[(1E)-2-(1H-indol-6-yl)ethenyl]-3-[(1E)-2-[4-(1-piperidinyl)phenyl]ethenyl]-1H-pyrazole] has a melting point of 189 to 191 °C.

With `COc1cc(OCc2ccccn2)ccc1/C=C/c1cc(/C=C/c2ccccc2)[nH]n1` [Example 109, 3-[(1E)-2-[2-methoxy-4-(2-pyridylmethoxy)phenyl]ethenyl]-5-[(1E)-2-phenylethenyl]-1H-pyrazole] the “tau aggregation inhibitory activity at 1 μM” value ([1]; compound at 1 μM) was 0%, the inhibition at 1 µM ([2]; compound at 1 μM) was 12% and the melting point was 143 to 146 °C.
